Laboratory results as given in publication PMC5831858, “Pharmacological characterisation of CR6086, a potent prostaglandin E2 receptor 4 antagonist, as a new potential disease-modifying anti-rheumatic drug” (Arthritis Research & Therapy, 2018).
Marks after values point to notes of the source that are not given here.

How the values were obtained:
[1] = test system: arthritic mice (collagen-induced arthritis model); test: CIA in mice, third study (CR6086, MTX, combination): clinical score, oedema, histology; type: in vivo, mouse; conditions: for CLINICAL SCORE (interquartile range): median (IQR)
[2] = test system: arthritic mice (collagen-induced arthritis model); test: Serum anti-bCII IgG antibodies (ELISA), CIA mice third study; type: in vivo, mouse; conditions: end of treatment
Procedure: In a third study, mice were randomised into the following treatment groups: naive, vehicle, 30 mg/kg CR6086, 1 or 3 mg/kg MTX, with the latter administered alone or in combination with 30 mg/kg CR6086. CR6086 was administered orally once daily. MTX was administered intraperitoneally three times per week (every third day). Mice were treated with test drugs for 16 days.
At the end of the treatment period, animals were killed, and their paws were explanted and processed for histology. In the third study, the serum concentrations of immunoglobulin G (IgG) antibodies against bCII were measured by ELISA (catalogue number 2032; Chondrex, Redmond, WA, USA).

[3] = test system: arthritic rats (collagen-induced arthritis model); test: Collagen-induced arthritis in rats: clinical score, oedema, histology; type: in vivo, rat; conditions: 15 mg/kg once daily
Procedure: (§1) Male Lewis rats were immunised by intradermal injection at the base of the tail with an emulsion containing 150 μg of bovine collagen type II (bCII) in complete Freund’s adjuvant (CFA) or received an injection with incomplete Freund’s adjuvant (sham group). Three weeks after the first immunisation, animals were boosted with the same procedure. Three days after booster injection, arthritis had developed in all animals but the sham group. Oedema was assessed via plethysmometer (Ugo Basile, Varese, Italy), and the animals were then randomised to treatment groups. Oedema measurement was performed again after 7 and 14 days of treatment. Animals were blindly scored by two different investigators for clinical signs of arthritis (redness, swelling, pain of hind limb joints) as follows: 0 = normal; 1 = mild but definite redness and swelling of the ankle or wrist or individual digits, regardless of the number of affected digits; 2 = moderate redness and swelling of ankle or wrist; 3 = severe redness and swelling of the entire paw including digits; and 4 = maximally inflamed limb with involvement of multiple joints. The mean of the scores assigned by the investigators was calculated.
Three different experiments in rat CIA are reported: a dose-response study, as well as two comparative studies vs the COX-2 inhibitor rofecoxib and the Janus kinase (JAK) inhibitor tofacitinib, respectively.
Briefly, the paws were fixed in 10% neutral buffered formalin (Bio-Optica, Milan, Italy) and subsequently decalcified in EDTA for 4 weeks. Samples were dehydrated in an ethanol series and embedded in paraffin. At least three non-consecutive sections for each paw were blindly scored at the level of the tarsus, metatarsus and calcaneus for the following histological features: synovial oedema, pannus, synovial inflammatory cell infiltrate, cartilage damage, osteolysis and woven bone. Based on these histological features, a synovial score (synovial oedema, plus synovial inflammatory cell infiltrate, plus pannus), a bone score (woven bone plus osteolysis) and a total score were calculated. Two independent pathologists performed histopathology on blinded slides. The data of right and left hind limbs were summed for each rat.

[4] = test system: arthritic rats (collagen-induced arthritis model); test: Mechanical hyperalgesia (PAM) in CIA rats; type: in vivo, rat; conditions: 15 mg/kg, mean ± SEM
Procedure: as §1
In the comparative experiment vs rofecoxib, mechanical hyperalgesia was assessed at the end of treatment by using a digital pressure application measurement (PAM) device (Ugo Basile). Increasing pressure was applied to the lateral side of the knee until the animal attempted to escape or vocalised. The force required to elicit this response was measured in grams (gram-force). An optimal stimulus increase rate of 100 g/second was used, and mechanical thresholds were reached after approximately 10 seconds. This increase was visualised with a rate meter on the built-in display, so the pressure applied was visually controlled. At the end of the experiment, animals were killed, and their hind paws were explanted and processed for histology.

[5] = test system: arthritic mice (collagen-induced arthritis model); test: CIA in mice, first study: clinical score and paw swelling; type: in vivo, mouse; conditions: 10 days; CR6086 30 and 60 mg/kg, naproxen 60 mg/kg oral once daily; etanercept 10 mg/kg i.p. every other day
Procedure: Male DBA/1 mice were immunised by intradermal injection at the base of the tail with an emulsion of 200 μg of bCII in CFA containing 3 mg/ml Mycobacterium tuberculosis. Non-immunised mice served as the negative control of disease. Animals were monitored by visual inspection for appearance of peripheral oedema. […] Upon onset, animals were recruited and randomised. Recruitment was given a cut-off at day 40. Upon recruitment, arthritis clinical score was assigned, and oedema was measured via caliper.
(§2) In a first study, mice were randomised into the following treatment groups: vehicle, 30 mg/kg CR6086, 60 mg/kg CR6086, 60 mg/kg naproxen and 10 mg/kg etanercept. Animals received the test drugs for 10 days. CR6086 and naproxen were administered orally once daily, whereas etanercept was administered intraperitoneally every other day. Animals treated with vehicle, 60 mg/kg CR6086, naproxen and etanercept were additionally analysed for the proportion of populations of Th17 cells, Th1 cells, regulatory T cells, B cells, macrophages, neutrophils and dendritic cells by fluorescence-activated cell sorting (FACS) after collection of blood, draining lymph nodes and joints.
Oedema measurement was performed every day before treatment, and all animals were blindly scored for clinical signs of arthritis as follows: 0 = normal; 1 = slight swelling and/or erythema; 2 = pronounced oedematous swelling; and 3 = ankyloses and severe swelling. A score of 0.5 was given to swollen toe/toes or when inflammation was localised to one part of the foot. Each limb was measured separately, with a final score based on the sum of the scores from all four paws.

[6] = test system: arthritic mice (collagen-induced arthritis model); test: FACS analysis of cell populations in the joint, CIA mice; type: in vivo, mouse; conditions: CR6086 60 mg/kg, naproxen 60 mg/kg, etanercept 10 mg/kg, mean ± SEM
Procedure: as §2

CN(Cc1cnc2nc(N)nc(N)c2n1)c1ccc(C(=O)N[C@@H](CCC(=O)O)C(=O)O)cc1 [MTX, methotrexate]
effect on joint histopathology ([1]; 16 days, 30 mg/kg CR6086, 3 mg/kg MTX, alone or combined): significantly improved all histological features of arthritis
CLINICAL SCORE (interquartile range) ([1]; DAY 0, 1 mg/kg MTX): 3.0 (2.4 – 3.3) *
CLINICAL SCORE (interquartile range) ([1]; DAY 0, 3 mg/kg MTX): 2.0 (2.0 – 2.0) *
CLINICAL SCORE (interquartile range) ([1]; DAY 1, 1 mg/kg MTX): 2.8 (2.0 – 3.0)
CLINICAL SCORE (interquartile range) ([1]; DAY 1, 3 mg/kg MTX): 2.3 (2.0 – 3.0)
CLINICAL SCORE (interquartile range) ([1]; DAY 2, 1 mg/kg MTX): 3.0 (3.0 – 4.0)
CLINICAL SCORE (interquartile range) ([1]; DAY 2, 3 mg/kg MTX): 3.0 (2.1 – 3.8)
CLINICAL SCORE (interquartile range) ([1]; DAY 3, 1 mg/kg MTX): 4.0 (3.0 – 4.8)
CLINICAL SCORE (interquartile range) ([1]; DAY 3, 3 mg/kg MTX): 3.0 (2.3 – 6.0)
CLINICAL SCORE (interquartile range) ([1]; DAY 4, 1 mg/kg MTX): 3.5 (3.0 – 5.5)
CLINICAL SCORE (interquartile range) ([1]; DAY 4, 3 mg/kg MTX): 4.0 (2.0 – 5.5)
CLINICAL SCORE (interquartile range) ([1]; DAY 5, 1 mg/kg MTX): 5.0 (3.4 – 6.3)
CLINICAL SCORE (interquartile range) ([1]; DAY 5, 3 mg/kg MTX): 3.5 (2.4 – 4.8)
CLINICAL SCORE (interquartile range) ([1]; DAY 6, 1 mg/kg MTX): 4.8 (3.3 – 8.1)
CLINICAL SCORE (interquartile range) ([1]; DAY 6, 3 mg/kg MTX): 4.0 (2.0 – 5.5)
CLINICAL SCORE (interquartile range) ([1]; DAY 7, 1 mg/kg MTX): 4.5 (2.8 – 7.5)
CLINICAL SCORE (interquartile range) ([1]; DAY 7, 3 mg/kg MTX): 4.5 (2.6 – 6.0)
CLINICAL SCORE (interquartile range) ([1]; DAY 8, 1 mg/kg MTX): 5.5 (3.8 – 7.6)
CLINICAL SCORE (interquartile range) ([1]; DAY 8, 3 mg/kg MTX): 4.3 (2.4 – 6.4)
CLINICAL SCORE (interquartile range) ([1]; DAY 9, 1 mg/kg MTX): 5.0 (3.3 – 7.0)
CLINICAL SCORE (interquartile range) ([1]; DAY 9, 3 mg/kg MTX): 4.5 (3.0 – 5.0)
CLINICAL SCORE (interquartile range) ([1]; DAY 10, 1 mg/kg MTX): 6.5 (3.0 – 7.3)
CLINICAL SCORE (interquartile range) ([1]; DAY 10, 3 mg/kg MTX): 5.0 (2.5 – 5.5)
CLINICAL SCORE (interquartile range) ([1]; DAY 11, 1 mg/kg MTX): 7.3 (4.4 – 7.5)
CLINICAL SCORE (interquartile range) ([1]; DAY 11, 3 mg/kg MTX): 5.0 (2.5 – 6.0)
CLINICAL SCORE (interquartile range) ([1]; DAY 12, 1 mg/kg MTX): 6.8 (5.3 – 7.5)
CLINICAL SCORE (interquartile range) ([1]; DAY 12, 3 mg/kg MTX): 5.5 (2.0 – 7.5)
CLINICAL SCORE (interquartile range) ([1]; DAY 13, 1 mg/kg MTX): 6.3 (4.5 – 7.0)
CLINICAL SCORE (interquartile range) ([1]; DAY 13, 3 mg/kg MTX): 6.0 (2.0 – 7.0)
CLINICAL SCORE (interquartile range) ([1]; DAY 14, 1 mg/kg MTX): 7.3 (5.0 – 7.6)
CLINICAL SCORE (interquartile range) ([1]; DAY 14, 3 mg/kg MTX): 4.5 (2.0 – 6.0)
CLINICAL SCORE (interquartile range) ([1]; DAY 15, 1 mg/kg MTX): 6.5 (5.0 – 7.5)
CLINICAL SCORE (interquartile range) ([1]; DAY 15, 3 mg/kg MTX): 4.5 (3.1 – 7.0)
CLINICAL SCORE (interquartile range) ([1]; DAY 16, 1 mg/kg MTX): 6.5 (5.5 – 8.3)
CLINICAL SCORE (interquartile range) ([1]; DAY 16, 3 mg/kg MTX): 4.5 (2.3 – 5.4)
Anti-collagen II ([2]; 1 mg/kg MTX): 483.83 ± 102.82 µg/mL
Anti-collagen II ([2]; 3 mg/kg MTX): 242.46 ± 79.35 µg/mL

CS(=O)(=O)c1ccc(C2=C(c3ccccc3)C(=O)OC2)cc1 [rofecoxib, reference compound]
effect on clinical score [3]: small effect
effect on structural and inflammatory parameters (oedema, histology) ([3]; 14 days): improved to a slight but significant extent the inflammatory parameters (not the structural ones)
Mechanical hyperalgesia, Day 0 ([4]; Day 0): 943.70 ± 73.42^a gram-force
Mechanical hyperalgesia, Day 7 ([4]; Day 7): 673.18 ± 53.76^b gram-force
Mechanical hyperalgesia, Day 14 ([4]; Day 14): 799.68 ± 61.15^b,c gram-force

etanercept
effect on disease parameters (visual clinical score, paw swelling) vs vehicle [5]: significantly improved
B cells, Percentage of total cells [6]: 5.74 ± 0.68%
Dendritic cells, Percentage of total cells [6]: 1.51 ± 0.18%
Macrophages, Percentage of total cells [6]: 12.31 ± 5.19%
Neutrophils, Percentage of total cells [6]: 10.53 ± 2.81%
Th1, Percentage of total cells [6]: 0.20 ± 0.05^a %
Th17, Percentage of total cells [6]: 0.16 ± 0.08%
Treg, Percentage of total cells [6]: 0.39 ± 0.10%
